Molecular target: CK2α (Homo sapiens, UniProt P68400)
Assay: In vitro kinase assay, [γ-32P]ATP phosphorylation of purified CSQ2 by pure CK2α

CK2α, sequence (P68400 whole entry): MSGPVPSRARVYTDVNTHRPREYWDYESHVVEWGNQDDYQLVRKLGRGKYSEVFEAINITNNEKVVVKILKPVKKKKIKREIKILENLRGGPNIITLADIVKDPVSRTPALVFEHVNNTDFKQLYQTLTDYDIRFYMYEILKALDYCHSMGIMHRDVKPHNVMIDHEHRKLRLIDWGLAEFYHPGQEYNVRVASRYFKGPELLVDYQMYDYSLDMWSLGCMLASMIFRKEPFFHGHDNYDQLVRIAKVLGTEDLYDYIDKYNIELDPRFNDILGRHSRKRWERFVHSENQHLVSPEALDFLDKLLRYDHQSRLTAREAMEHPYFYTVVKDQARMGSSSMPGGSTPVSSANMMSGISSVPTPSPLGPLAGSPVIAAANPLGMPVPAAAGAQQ

SMILES: O=C(O)/C=C/c1cc(Br)c(Br)c(Br)c1Br [TBCA]
- IC50: ~10 µM
